The term pIC50 denotes the negative decadic logarithm of the IC50, by convention in mol/L.

Common to all, as to experiment: CellTiter-Blue cell viability assay
Assay type in all cases: cell-based, human
Background: The colour change of resazurin is a common sign of viable cells or microbes.

The test system of one experiment is A2008. The conditions noted are these: A2008 ovarian cancer cell line, 72 hours, 50% reduction in growth/viability. The source says: (§1) Ovarian cancer cell lines were obtained from the American Type Culture Collection (Manassas, Va.) (CAOV3, OV90, OVCAR3, SKOV3, TO[…]); from the European Collection of Cell Cultures, Salisbury, UK (A2780CP, A2780S); or from Kyoto University, Kyoto, Japan ([…], Tyknu, and TyknuC is R) or were kind gifts from Dr. Patricia Kruk, Department of Pathology, College of Medicine, University of South Florida, Tampa, Fla., and Susan Murphy, PhD, Dept of OBGYN/Division of GYN Oncology, Duke University, Durham, N.C. […] Cell lines were maintained in RPMI-1640 (Invitrogen, Carlsbad, Calif.) supplemented with 10% fetal bovine serum (Fisher Scientific, Pittsburgh, Pa.), 1% sodium pyruvate, 1% penicillin/streptomycin (Cellgro, Manassas, Va.), and 1% nonessential amino acids (HyClone, Hudson, N.H.). Mycoplasma testing was performed every 6 months following manufacturer's protocol (Lonza, Rockland, Me.). Drug activity was evaluated using a high-throughput CellTiter-Blue cell viability assay. […] After cell adherence, increasing concentrations of cisplatin, carboplatin (Sigma-Aldrich, St. Louis, Mo.), paclitaxel (Sequoia Research Products Ltd., Pangbourne, UK), or carboplatin plus paclitaxel (carbotaxol: constant molar ratio of carboplatin to paclitaxel of 20,000:1) were added to appropriate wells using an automated pipetting station. Four replicate wells were used for each drug concentration and vehicle controls. […] The cells were incubated with the drug for 72 hours, and 5 μL of CellTiter-Blue reagent (Promega Corp) was added to each well. Fluorescence was read at […] using a Synergy 4 microplate reader (Bio-Tek Instruments, Inc., Winooski, Vt.).

The test system of another experiment is A2780CP. The note with it: A2780CP ovarian cancer cell line, 72 hours, 50% reduction in growth/viability.
Excerpt: as §1

The next experiment relates to A2780S. The note with it: A2780S ovarian cancer cell line, 72 hours, 50% reduction in growth/viability.
Excerpt: as §1

The next experiment concerns CAOV2. The note with it: CAOV2 ovarian cancer cell line, 72 hours, 50% reduction in growth/viability.
Excerpt: as §1

The test system of a further experiment is CAOV3. The note with it: CAOV3 ovarian cancer cell line, 72 hours, 50% reduction in growth/viability.
Excerpt: as §1

Another experiment has as its system CHIcisR. The conditions noted are these: CHIcisR ovarian cancer cell line, 72 hours, 50% reduction in growth/viability.
Excerpt: as §1

A further experiment deals with CHI. The note with it: CHI ovarian cancer cell line, 72 hours, 50% reduction in growth/viability.
Excerpt: as §1

Another experiment has as its system Dov13. The conditions noted are these: Dov13 ovarian cancer cell line, 72 hours, 50% reduction in growth/viability.
Excerpt: as §1

The subject of a further experiment is IMCC3. The conditions noted are these: IMCC3 ovarian cancer cell line; 72 hours; 50% reduction in growth/viability.
Excerpt: as §1

A further experiment relates to IMCC5. The note with it: IMCC5 ovarian cancer cell line, 72 hours, 50% reduction in growth/viability.
Excerpt: as §1

The next experiment deals with MCAS. The note with it: MCAS ovarian cancer cell line, 72 hours, 50% reduction in growth/viability.
Excerpt: as §1

The subject of a further experiment is OVCA420. The note with it: OVCA420 ovarian cancer cell line; 72 hours; 50% reduction in growth/viability.
Excerpt: as §1

A further experiment deals with OVCA432. The conditions noted are these: OVCA432 ovarian cancer cell line, 72 hours, 50% reduction in growth/viability.
Excerpt: as §1

The subject of another experiment is OVCA433. The note with it: OVCA433 ovarian cancer cell line, 72 hours, 50% reduction in growth/viability.
Excerpt: as §1

The next experiment deals with OVCAR10. The conditions noted are these: OVCAR10 ovarian cancer cell line, 72 hours, 50% reduction in growth/viability.
Excerpt: as §1

Another experiment has as its system OVCAR2. The conditions noted are these: OVCAR2 ovarian cancer cell line, 72 hours, 50% reduction in growth/viability.
Excerpt: as §1

The next experiment has as its system OVCAR5. The note with it: OVCAR5 ovarian cancer cell line, 72 hours, 50% reduction in growth/viability.
Excerpt: as §1

Another experiment deals with Ovary1847. The note with it: Ovary1847 ovarian cancer cell line, 72 hours, 50% reduction in growth/viability.
Excerpt: as §1

A further experiment relates to SK-OV-4. The note with it: SK-OV-4 ovarian cancer cell line, 72 hours, 50% reduction in growth/viability.
Excerpt: as §1

Another experiment relates to TOV112D. The conditions noted are these: TOV112D ovarian cancer cell line, 72 hours, 50% reduction in growth/viability.
Excerpt: as §1

The subject of another experiment is TyknuCisR. The note with it: TyknuCisR ovarian cancer cell line, 72 hours, 50% reduction in growth/viability.
Excerpt: as §1

pIC50: −log10 of the molar value.

For the compound `N.N.O=C([O-])C1(C(=O)[O-])CCC1.[Pt+2]` [Carboplatin, carboplatin], the pIC50 in the experiment on A2008 is 4.69; in the experiment with A2780CP it was 4.03; in the experiment with A2780S, 4.61; in the experiment with CAOV2, 4.15; in the experiment on CAOV3, 4.16; in the experiment on CHIcisR it was 4.70. Also, the negative-log IC50 (pIC50) with CHI is 4.63; in the experiment with Dov13 it was 3.98; in the experiment on IMCC3 it was 4.16; in the experiment with IMCC5 it was 4.38; with MCAS it was 3.63; with OVCA420 it was 3.78. In addition, the pIC50 in the experiment with OVCA432 is 4.20; with OVCA433 it was 3.57; in the experiment on OVCAR10, 3.89; in the experiment on OVCAR2, 4.34; in the experiment on OVCAR5, 3.90; with Ovary1847, 3.76. For the same compound, the negative logarithm of the IC50 (pIC50) with SK-OV-4 was 4.64; with TOV112D it was 4.12; in the experiment on TyknuCisR, 4.20.
In the case of `CC(=O)O[C@H]1C(=O)[C@@]2(C)[C@H]([C@H](OC(=O)c3ccccc3)[C@]3(O)C[C@H](OC(=O)[C@H](O)[C@@H](NC(=O)c4ccccc4)c4ccccc4)C(C)=C1C3(C)C)[C@]1(OC(C)=O)CO[C@@H]1C[C@@H]2O` [Paclitaxel, paclitaxel], the pIC50 in the experiment on A2008 (Homo sapiens) was 8.24; in the experiment on A2780CP (Homo sapiens, A2780C/P), 8.40; in the experiment with A2780S (Homo sapiens), 8.62; with CAOV2 (Homo sapiens), 7.69; with CAOV3 (Homo sapiens, Caov-3) it was 8.34; in the experiment on CHIcisR (Homo sapiens), 8.74. Further, the negative-log IC50 (pIC50) in the experiment on CHI (Homo sapiens) is 9.00; in the experiment on Dov13 (Homo sapiens), 7.76; in the experiment on IMCC5 (Homo sapiens), 8.51; in the experiment on MCAS (Homo sapiens), 8.54; with OVCA432 (Homo sapiens), 8.20; with OVCA433 (Homo sapiens) it was 8.68. Moreover, the pIC50 was 8.15 in the experiment on OVCAR10 (Homo sapiens); 8.55 with OVCAR2 (Homo sapiens); 8.25 in the experiment on OVCAR5 (Homo sapiens, OVCAR-5); 8.25 in the experiment on Ovary1847 (Homo sapiens); 8.64 in the experiment on SK-OV-4 (Homo sapiens); 6.96 in the experiment on TOV112D (Homo sapiens). The negative logarithm of the IC50 (pIC50) in the experiment with TyknuCisR (Homo sapiens) was 8.14.

(Values after patent publication US10982284B2, “Compositions and methods APC, CREB, and BAD pathways to assess and affect cancer” (H. Lee Moffitt Cancer Center and Research Institute, Inc., priority 2011, dated 2021).)
